# Laboratory results reported in patent US20060058374A1, “Urotensin II receptor agents” (priority 2002, published 2006).
# pKi: −log10 of the molar value.
# Experiments:
# Type in all cases: cell-based
# CRF1 = target: T1, CRF1 (Homo sapiens, UniProt P34998); experiment: R-SAT assay, CRF1; conditions: percent maximal activation relative to control compound
# T1 construct: expressed in transfected cells; host or cells: NIH3T3
# Method: (§1) The test compound of Formula III was screened according to a modification of the method described in U.S. Pat. No. 5,912,312. The method, herein referred to as Method 1, consists of the following:
# (§2) Receptor Selection and Amplification (R-SAT) Assays.
# (§3) R-SAT assays were performed with minor modifications from that previously described (6). Briefly, NIH3T3 cells were grown in tissue culture treated rollerbottles to 40-50% confluence. Cells were transfected for 12-16 hours with plasmid DNAs using superfect (Qiagen Inc.) as per manufacture's protocols. R-SAT's were generally performed with 10 μg/rollerbottle of receptor and 50 μg/rollerbottle of Beta-galactosidase plasmid DNA. All receptor and G-protein constructs used were in the PSI mammalian expression vector (Promega Inc.). The transfected cells were then trypsinized and frozen in DMEM containing 10% DMSO. Frozen cells were later thawed, plated at 10,000-40,000 cells per well of a 96 ½ area plate that contained drug. […] Media was then removed from the plates and marker gene activity was measured by the addition of the beta-galactosidase substrate ONPG (in PBS with 5% NP-40). The resulting colorimetric reaction was measured in a spectrophotometric plate reader (Titertek Inc.) at […].
# (§4) EC50, IC50 and Ki are presented as the negative of the calculated potency in Molar.
# Dopamine D2 = target: T2, Dopamine D2 (Homo sapiens, UniProt P14416); experiment: R-SAT assay, Dopamine D2
# T2 construct: expressed in transfected cells; host or cells: NIH3T3
# Method: as §1, §2, §3, §4
# Acetylcholine m5 = target: T3, Acetylcholine m5 (Homo sapiens, UniProt P08912); experiment: R-SAT assay, Acetylcholine m5
# T3 construct: expressed in transfected cells; host or cells: NIH3T3
# T3 sequence (P08912 1-532): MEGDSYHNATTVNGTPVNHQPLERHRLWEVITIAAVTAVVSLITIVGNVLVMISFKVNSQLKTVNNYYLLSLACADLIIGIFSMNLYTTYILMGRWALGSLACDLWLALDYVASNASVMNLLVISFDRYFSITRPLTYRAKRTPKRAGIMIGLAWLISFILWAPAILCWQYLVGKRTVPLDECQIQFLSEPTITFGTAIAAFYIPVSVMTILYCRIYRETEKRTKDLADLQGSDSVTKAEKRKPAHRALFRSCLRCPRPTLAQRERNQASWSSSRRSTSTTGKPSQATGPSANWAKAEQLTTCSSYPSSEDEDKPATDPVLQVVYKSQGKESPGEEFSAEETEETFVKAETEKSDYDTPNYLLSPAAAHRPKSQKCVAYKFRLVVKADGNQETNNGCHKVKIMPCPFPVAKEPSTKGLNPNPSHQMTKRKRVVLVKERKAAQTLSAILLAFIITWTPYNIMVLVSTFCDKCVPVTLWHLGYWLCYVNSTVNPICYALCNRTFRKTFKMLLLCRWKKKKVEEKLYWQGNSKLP
# Method: as §1, §2
# R-SAT assays were performed with minor modifications from that previously described (6). Briefly, NIH3T3 cells were grown in tissue culture treated rollerbottles to 40-50% confluence. Cells were transfected for 12-16 hours with plasmid DNAs using superfect (Qiagen Inc.) as per manufacture's protocols. R-SAT's were generally performed with 10 μg/rollerbottle of receptor and 50 μg/rollerbottle of Beta-galactosidase plasmid DNA. All receptor and G-protein constructs used were in the PSI mammalian expression vector (Promega Inc.). The transfected cells were then trypsinized and frozen in DMEM containing 10% DMSO. Frozen cells were later thawed, plated at 10,000-40,000 cells per well of a 96 ½ area plate that contained drug. Cells were then grown in a humidified atmosphere with 5% ambient CO2 for five days. Media was then removed from the plates and marker gene activity was measured by the addition of the beta-galactosidase substrate ONPG (in PBS with 5% NP-40). The resulting colorimetric reaction was measured in a spectrophotometric plate reader (Titertek Inc.) at […].
# as §4
# Histamine H1 = target: T4, Histamine H1 (Homo sapiens, UniProt P35367); experiment: R-SAT assay, Histamine H1; conditions: competitive antagonist mode; percent maximal inhibition relative to control standard compound
# T4 construct: expressed in transfected cells; host or cells: NIH3T3 cells, receptor plasmid in PSI mammalian expression vector (Promega)
# Method: as §1, §2, §3, §4
# Acetylcholine m1 = target: T5, Acetylcholine m1 (Homo sapiens, UniProt P11229); experiment: R-SAT assay, Acetylcholine m1
# T5 construct: expressed in transfected cells; host or cells: NIH3T3
# Method: as §1, §2, §3, §4
# CCKa = target: T6, CCKa (Homo sapiens, UniProt P32238); experiment: R-SAT assay, CCKa; conditions: percent maximal activation relative to control compound
# T6 construct: expressed in transfected cells; host or cells: NIH3T3
# Method: as §1, §2, §3, §4
# [1] = competitive antagonist mode, percent maximal inhibition relative to control standard compound
# [2] = percent maximal activation relative to control compound
# T2 sequence (P14416 whole entry): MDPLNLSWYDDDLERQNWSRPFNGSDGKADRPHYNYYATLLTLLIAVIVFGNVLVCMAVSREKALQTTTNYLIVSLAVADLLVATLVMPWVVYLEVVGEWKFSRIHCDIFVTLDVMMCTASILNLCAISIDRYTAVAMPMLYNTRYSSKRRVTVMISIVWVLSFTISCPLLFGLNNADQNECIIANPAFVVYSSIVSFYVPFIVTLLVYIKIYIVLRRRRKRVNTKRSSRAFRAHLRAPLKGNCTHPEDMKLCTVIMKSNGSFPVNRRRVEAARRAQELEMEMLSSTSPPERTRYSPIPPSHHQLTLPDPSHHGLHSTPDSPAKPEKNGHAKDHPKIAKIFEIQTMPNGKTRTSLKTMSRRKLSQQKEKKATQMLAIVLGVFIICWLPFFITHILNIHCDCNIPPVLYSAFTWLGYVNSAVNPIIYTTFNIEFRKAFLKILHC
# T5 sequence (P11229 whole entry): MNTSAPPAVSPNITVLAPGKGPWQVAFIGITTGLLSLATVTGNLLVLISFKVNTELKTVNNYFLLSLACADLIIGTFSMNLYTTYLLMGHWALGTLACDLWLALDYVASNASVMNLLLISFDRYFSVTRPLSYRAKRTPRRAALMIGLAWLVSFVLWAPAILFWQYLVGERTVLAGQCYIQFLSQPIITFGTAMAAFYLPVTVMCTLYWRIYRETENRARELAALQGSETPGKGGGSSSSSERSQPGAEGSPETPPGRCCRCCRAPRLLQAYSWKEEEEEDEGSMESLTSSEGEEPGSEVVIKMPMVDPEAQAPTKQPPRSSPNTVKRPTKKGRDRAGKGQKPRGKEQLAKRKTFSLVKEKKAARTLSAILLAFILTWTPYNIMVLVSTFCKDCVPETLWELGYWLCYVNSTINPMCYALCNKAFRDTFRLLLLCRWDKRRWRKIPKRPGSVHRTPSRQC
# T6 sequence (P32238 whole entry): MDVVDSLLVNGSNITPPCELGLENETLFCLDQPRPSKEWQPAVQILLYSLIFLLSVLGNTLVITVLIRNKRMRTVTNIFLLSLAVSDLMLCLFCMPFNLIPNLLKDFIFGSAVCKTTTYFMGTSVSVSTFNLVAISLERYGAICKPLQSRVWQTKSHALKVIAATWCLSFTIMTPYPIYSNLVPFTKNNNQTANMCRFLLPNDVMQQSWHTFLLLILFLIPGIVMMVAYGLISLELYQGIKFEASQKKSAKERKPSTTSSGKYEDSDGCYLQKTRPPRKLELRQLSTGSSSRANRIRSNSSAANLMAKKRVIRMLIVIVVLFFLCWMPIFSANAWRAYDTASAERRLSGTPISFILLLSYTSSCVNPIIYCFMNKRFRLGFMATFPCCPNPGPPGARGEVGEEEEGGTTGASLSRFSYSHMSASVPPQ
# T1 sequence (P34998 24-415): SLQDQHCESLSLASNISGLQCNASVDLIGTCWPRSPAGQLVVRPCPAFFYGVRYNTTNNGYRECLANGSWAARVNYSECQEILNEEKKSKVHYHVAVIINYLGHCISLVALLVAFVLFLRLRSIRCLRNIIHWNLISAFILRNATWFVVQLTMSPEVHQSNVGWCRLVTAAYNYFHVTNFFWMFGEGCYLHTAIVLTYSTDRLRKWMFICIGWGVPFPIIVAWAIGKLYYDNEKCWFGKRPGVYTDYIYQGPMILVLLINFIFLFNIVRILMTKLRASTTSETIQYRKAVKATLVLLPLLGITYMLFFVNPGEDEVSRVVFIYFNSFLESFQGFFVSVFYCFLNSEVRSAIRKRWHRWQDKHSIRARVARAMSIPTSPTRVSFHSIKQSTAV
# T4 sequence (P35367 whole entry): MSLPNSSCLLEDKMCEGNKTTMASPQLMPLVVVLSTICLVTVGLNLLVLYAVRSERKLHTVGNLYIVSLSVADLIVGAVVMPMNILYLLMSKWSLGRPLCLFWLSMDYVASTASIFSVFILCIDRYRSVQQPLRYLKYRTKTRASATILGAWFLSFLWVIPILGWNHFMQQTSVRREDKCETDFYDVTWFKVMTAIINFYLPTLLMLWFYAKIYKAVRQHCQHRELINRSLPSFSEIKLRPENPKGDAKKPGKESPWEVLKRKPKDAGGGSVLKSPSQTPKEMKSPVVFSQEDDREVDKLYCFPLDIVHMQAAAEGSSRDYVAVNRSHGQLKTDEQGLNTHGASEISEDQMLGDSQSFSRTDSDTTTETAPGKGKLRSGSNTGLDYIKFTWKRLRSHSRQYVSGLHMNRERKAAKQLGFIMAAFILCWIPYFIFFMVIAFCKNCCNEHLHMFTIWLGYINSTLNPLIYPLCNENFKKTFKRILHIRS
compound,measurement,setting,value
CN(C)CCC1(c2ccc(Cl)cc2)Cc2ccccc2C(=O)O1 (stereo not shown) [Formula III],Agonist % Eff,CRF1,0%
same,Competitive Antagonist % Inh,Dopamine D2; [1],13.2%
same,Agonist % Eff,Dopamine D2; [2],13.6%
same,pKi,"Acetylcholine m5; competitive antagonist mode, negative of the calculated potency in Molar",< 5.65
same,Competitive Antagonist % Inh,Acetylcholine m5; [1],55%
same,Agonist % Eff,Acetylcholine m5; [2],3.6%
same,Competitive Antagonist % Inh,Histamine H1,0%
same,Competitive Antagonist % Inh,Acetylcholine m1; [1],13%
same,Agonist % Eff,Acetylcholine m1; [2],3%
same,Agonist % Eff,CCKa,0%
